Measured values reported in USRE44543E1, “Naphthalenic compounds as termite bait toxicants” (priority 2002, dated 2013).

How the values were obtained:
C. formosanus = test: ARS bait matrix bioassay with NHA sodium salt, protocol of Example 1 (Example 2); assay type: in vivo, Coptotermes formosanus; settings: concentrations greater than 500 and up to 1500 ppm; also effective
Procedure: For bait matrices with a final concentrations of NHA sodium salt of either 250 ppm or 500 ppm, the following procedure was used. A total of 25 mg or 50 mg, respectively of the NHA sodium salt was weighed using a Mettler balance. The NHA sodium salt complex was placed into a 50 ml sterile screw cap conical tube (#62.547.004; Sarstedt, Newton, N.C.) and dissolved with 40 ml nutritive solution described in Example 2 of U.S. patent application Ser. No. 09/294,499 filed Apr. 20, 1999, hereby incorporated by reference. Under a laminar flow hood, this product was mixed with 27 ml more of sterile nutritional supplement in a 250 ml sterile glass bottle (prepared as reported by M. G. Rojas and J. A. Morales-Ramos, April 2001, “Bait matrix for delivery of chitin synthesis inhibitors to the Formosan subterranean termite [Isoptera: Rhinotermitidae],” J. Econ. Entomol. 94(2) :506-510) hereby incorporated by reference. The bottle was tightly closed with a screw cap and manually shaken for 2 minutes. The mixture was added to 33 g of sterile cellulose as reported by Rojas and Morales-Ramos (2001) supra. The mixture was manually homogenized using a stainless steel spatula. To encase the bait matrix, tubes made of fibrous casing material (#124B; L.E.M. Products, Inc., Miamitown, Ohio) were cut into 150 mm long portions as reported by Rojas and Morales-Ramos (2001) supra. Fifty grams of bait matrix containing NHA sodium salt was compacted into one end of the inlet tube, and the open end and of the inlet tube was closed with a rubber band. The bait casing was placed inside of the foraging box adjacent to a 10 g piece of pine wood, taking care that it was partially covered with sand. Control bait matrix was prepared minus NHA, and presented in the same way as the treatment matrix to Formosan termites taken from three different colonies, with two boxes per locality totaling six boxes of 2500 termites per treatment. (Rojas and Morales-Ramos [2001] supra). All the experimental boxes were maintained under dark conditions at 27±1° C., and 90±2% relative humidity. Observations were done every 72 hours until all the termites died. The time to reach 100% mortality was measured and recorded. Mean comparisons among treatments and control were conducted.
N-hydroxynaphthyalimide (NHA) which is commercially available as pure chemical, is dissolved in distilled water using a sterile container; At concentrations of 500 ppm, NHA is effective as bait active ingredient taking a mean time to kill C. formosanus in 2½ months in lab conditions. […]

[1] = test system: Formosan subterranean termite; test: Field test of NHA pressure treated aspen wood in bait stations, New Orleans; assay type: in vivo, Coptotermes formosanus
Description: NHA as a wood preservative has been extensively studied (F. Green III, T. A. Kuster, L. Ferge, and T. L. Highley, 1997. Protection of southern pine from fungal decay and termite damage with N,N-Naphthaloylhydroxylamine. Inter. Biodeter. and Biodeg. 39(2-3):103-111; D. M. Crawford and F. Green III, 1999. Protection of southern pine using N,N-Naphthaloylhydroxylamine: Field tests, soft-rot cellars and aquatic bioassay leach testing. Internat. Res. Group on Wood Preserv. Doc. No: IRG/WP 99-30204). Monitoring termite activity in baiting systems is conducted by the use of wooden interceptors constructed from out of aspen, southern yellow pine, white or yellow poplar. In humid environments such as the Southeastern United States, a problem with degradations of such interceptors by fungi frequently occurs. We have noticed that low concentrations of NHA from 200 to 1000 ppm is acceptable to retard fungal growth without presenting any deleterious effect in the termites when incorporated into wooden materials. For bait efficacy, when the chemical is impregnated on pieces of wood the concentration that is retained varies as well as the efficacy. […]

`O=C1c2cccc3cccc(c23)C(=O)N1O` [NHA, N-hydroxynaphthalimide] was tested, and the “mean killing times versus 500 ppm” value (C. formosanus) was “not significantly different” and the “optimal NHA concentration after field testing” value [1] was 500 ppm.
